Reference: US20180289708A1 (priority 2015, published 2018)
Like-named read-outs stand apart in the source and are kept apart here.

Assays:
[1] = test system: subjects with treatment-refractory insomnia; assay: Dipyridamole in combination with melatonin for insomnia; type: in vivo, human
Method: The melatonin dose ranged between 0.25 mg and 10 mg per pill.

[2] = test system: human subjects with intractable insomnia; assay: Insomnia treatment with low dose oral dipyridamole; type: in vivo
subjects with xerostomia = assay: Xerostomia treatment; type: in vivo, human; conditions: Subject 1 (person twelve), 2 mg
Method: Subject 1 (person twelve) and Subject 2 (person three) were treated with varying doses (1, 2, 3, 4, 5 and 10 mg) taken in the morning or evening, for periods of 2 weeks for each dose then continued on optimal dose for 15 months in total.

subjects with CLL = assay: Treatment of chronic lymphocytic leukemia; type: in vivo, human; conditions: Subject 1 (person eleven), 2 mg, one month; from 25,000 (rising by 10%/month)
[3] = test system: subjects with frequent viral infections (with upper respiratory symptoms); assay: Prevention and treatment of viral disease; type: in vivo, human
Method: Subject 1 (person eight), Subject 2 (person two), Subject 3, and Subject 4 were treated with varying doses (2, 5 and 10 mg) taken at any time during the day, for periods of 2 weeks for each dose, and thereafter continuously for up to 2 years.

[4] = test system: subject with cancer-related bone pain; assay: Treatment of cancer-related bone pain; type: in vivo, human; conditions: person, 2 mg in the early evening
Method: A person was treated with 2 mg taken in the early evening hours. The subject reported resolution of bone pain related to metastatic prostate cancer to the cervical spine within 4 days. The subject was previously dependent on the daily use of opiate pain medications for the past 6 months.

[5] = test system: subjects with chronic rheumatic pain; assay: Treatment of chronic rheumatic or fibromyalgia pain; type: in vivo, human
Method: Subject 1 was treated with 2 mg taken once daily with the first daily dose of oxycodone. Subject 2 (person twelve) was treated with 2 mg or 5 mg taken once daily, in conjunction with oxycodone. Subject 3 (person five) was treated with 2 mg, 5 mg or 10 mg taken once daily with PERCOCET.

[6] = test system: subjects with erectile dysfunction; assay: Erectile dysfunction treatment with low dose oral dipyridamole; type: in vivo, human
Excerpt: Some subjects had either failed or could not tolerate conventional treatments.

[7] = Storage stability of dipyridamole dissolved in propylene glycol; type: physicochemical; conditions: 1 year of storage at room temperature
Excerpt: (§1) Solubility of a compound is known to increase absorption and efficacy. In other exemplary embodiments of the invention, liquid formulations are provided in gel-caps.

[8] = test system: subject with recurrent, non-streptococcal, non-specific sore throat; assay: Treatment of non-specific recurrent sore throat; type: in vivo, human; conditions: person, 29 kg, 1 mg/day before sleep, followed 11 months
Method: A person was treated with 1 mg taken before sleep and followed for 11 months in total. […] One mg dose was given based on a weight of 29 kg.

[9] = test system: subjects with keratoconjunctivitis sicca; assay: Keratoconjunctivitis sicca treatment with low dose oral dipyridamole; type: in vivo, human; conditions: Subject 1 (person thirteen), 2 mg
Method: Each of the three subjects was unresponsive to cyclosporine eye drops or to lubricating drops which are the conventional treatments.
Subject 1 (person thirteen), Subject 2 (person twelve) and Subject 3 (person twelve) were treated with varying doses (2, 5 and 10 mg) taken before sleep or in the afternoon/evening hours, for initial periods of up to 2 weeks for each dose to establish optimal dosing, and followed for up to 12 months in total.

[10] = cited from earlier work
[11] = test system: subject with androgenetic alopecia; assay: Treatment of androgenetic alopecia; type: in vivo, human; conditions: person, 14 months in total
Method: A person was treated with varying doses (2 and 4 mg) taken in the morning or evening, for periods of 2 weeks for each dose and continued with the optimal dose for 14 months in total.

[12] = Solubility of dipyridamole in propylene glycol / water; type: physicochemical
Excerpt: as §1

[13] = test system: subject with prostate cancer; assay: Prostate cancer treatment; type: in vivo, human; conditions: person four, daily dose of 2 mg, 3 month period; from 19.1
Method: person four was treated with 2 mg taken in the afternoon or evening and followed for 3 months.

[14] = IV or oral 20-50 mg, followed up to 60 hours

Q: With COc1ccc2[nH]cc(CCNC(C)=O)c2c1 [melatonin] as the compound, how does the “prior response of insomnia to melatonin alone” value ([1]; six subjects with treatment-refractory insomnia) read?
A: unresponsive

Q: With OCCN(CCO)c1nc(N2CCCCC2)c2nc(N(CCO)CCO)nc(N3CCCCC3)c2n1 [dipyridamole] as the compound, how does the “effect on insomnia at 10 mg or more (conclusion of example)” value ([2]; 10 mg or more, 4 subjects) read?
A: little or no effect

Q: What about the “benefit on insomnia at 10 mg” value ([2]; Subject 1, 10 mg) of the same compound?
A: negligible benefit compared to lower doses

Q: What about the “optimal dose for ensuring an excellent night's sleep” value ([2]; Subject 1, oral, before sleep) of the same compound?
A: 2 mg

Q: What about the “duration of undisturbed sleep” value ([2]; Subject 2 (person nine), 2 mg) of the same compound?
A: 6-8 hours per night

Q: And the “optimal dose for ensuring an excellent, undisturbed sleep” value ([2]; Subject 2 (person nine), oral, before sleep)?
A: 2 mg

Q: And the “duration of occasionally recurring symptoms” value (subjects with xerostomia)?
A: 2 to 3 h

Q: And the “reduction in severity of occasionally recurring symptoms” value (subjects with xerostomia; recurrence once every few weeks)?
A: 70%

Q: What about the “white blood cell count after treatment” value (subjects with CLL) of the same compound?
A: 18,000

Q: What about the “incidence of viral infections under treatment” value ([3]; Subject 3, 2 mg once daily, previously 5-6 times yearly) of the same compound?
A: 1-2 times yearly

Q: And the “time to resolution of infection symptoms” value ([3]; Subject 3, 2 mg twice daily, previously 7-10 days)?
A: 1 to 2 days

Q: What about the “effect of 10 mg dose on viral infection” value ([3]; Subject 3, 10 mg, one occasion) of the same compound?
A: failed to deliver the same benefit as the 2 mg dose

Q: What about the “optimal dose for reducing incidence of viral infections” value ([3]; Subject 3, once daily) of the same compound?
A: 2 mg

Q: What about the recurrence of infections ([3]; Subject 4, 2 mg daily for 10 months, previously every 3-4 months) of the same compound?
A: without any recurrence of infections

Q: What about the “time to complete relief of symptoms of severe viral infection” value ([3]; Subject 4, 2 mg twice daily, upper respiratory symptoms plus viral conjunctivitis) of the same compound?
A: 1 to 2 days

Q: And the “time to resolution of bone pain related to metastatic prostate cancer to the cervical spine” value [4]?
A: ≤ 4 days

Q: And the “outcome on pain related to chronic fibromyalgia” value ([5]; Subject 1, 2 mg once daily added to oxycodone)?
A: complete relief of pain

Q: And the “time to complete weaning off oxycodone while maintaining pain relief” value ([5]; Subject 2 (person twelve), 2 mg)?
A: ≤ 3 months

Q: What about the “pain relief at 10 mg” value ([5]; Subject 2 (person twelve), 10 mg instead of 2 mg) of the same compound?
A: negligible pain relief

Q: What about the “duration of low dose dipyridamole use after which Percocet was weaned off” value ([5]; Subject 3 (person five), 2 mg) of the same compound?
A: 2 months

Q: And the “optimal dose for complete restoration of erectile function” value ([6]; Subject 1, daily at night)?
A: 2 mg

Q: And the “time to restoration of erectile function” value ([6]; Subject 3 (person seven), 2 mg)?
A: ≤ 10 days

Q: And the “effect on erectile function at 10 mg daily” value ([6]; Subject 3 (person seven), 10 mg daily)?
A: the beneficial effect was lost

Q: And the “time to resolution of erectile dysfunction” value ([6]; Subject 4, 2 mg)?
A: ≤ 5 days

Q: And the “time to resolution of erectile dysfunction” value ([6]; Subject 5, 2 mg)?
A: ≤ 2 weeks

Q: And the “effect of 10 mg compared with 5 mg” value ([6]; Subject 5, 10 mg)?
A: did not produce the same benefit as 5 mg

Q: What about the “effect when taken with food” value ([6]; Subject 5, taken with food) of the same compound?
A: 2 mg was not that effective but 5 mg was

Q: And the potency after storage [7]?
A: maintained its potency

Q: And the “outcome on recurrent sore throat” value [8]?
A: complete resolution of recurrent sore throat

Q: What about the “outcome on dry eye symptoms” value [9] of the same compound?
A: complete relief of dry eye symptoms

Q: What about the “peak plasma concentration at steady state” value ([10]; 75 mg q.i.d.) of the same compound?
A: 1.54 µg/mL

Q: And the “trough plasma concentration at steady state” value ([10]; 75 mg q.i.d.)?
A: 0.269 µg/mL

Q: And the “geometric mean peak plasma concentration at steady state” value ([10]; 75 mg t.d.s.)?
A: 1.86 µg/mL

Q: And the “geometric mean trough plasma concentration at steady state” value ([10]; 75 mg t.d.s.)?
A: 0.13 µg/mL

Q: What about the “peak plasma concentration at steady state” value ([10]; 100 mg q.i.d.) of the same compound?
A: 2.36 µg/mL

Q: And the “trough plasma concentration at steady state” value ([10]; 100 mg q.i.d.)?
A: 0.432 µg/mL

Q: What about the “half-life, first phase of tri-exponential plasma decline” value ([10]; IV only, 20-50 mg, followed up to 60 hours) of the same compound?
A: 5 min

Q: What about the “half-life, second phase of tri-exponential plasma decline” value [10, 14] of the same compound?
A: 53 min

Q: And the “half-life, third phase of tri-exponential plasma decline” value [10, 14]?
A: 600 to 720 min

Q: What about the “time to peak plasma levels” value ([10]; humans, following oral administration) of the same compound?
A: 1 to 3 h

Q: And the distribution half-life ([10]; humans, intravenous (IV) administration)?
A: about 25 minutes

Q: What about the distribution half-life ([10]; humans, oral administration) of the same compound?
A: about 3 hours

Q: What about the “dose range in which dose linearity was demonstrated” value ([10]; single dose administration) of the same compound?
A: 25 to 150 mg

Q: What about the “optimal dose for expansion of hairline, thicker hair, decreased hair loss and increased growth of chest and abdominal hair” value [11] of the same compound?
A: 4 mg

Q: And the “solubility in propylene glycol” value ([12]; propylene glycol)?
A: ≥ 10 mg per ml

Q: What about the “solubility in propylene glycol” value ([12]; pure propylene glycol, dissolved at 5, 10 and 20 mg/mL) of the same compound?
A: surprisingly soluble in propylene glycol

Q: What about the “solubility in water” value ([12]; water) of the same compound?
A: difficult to dissolve in water

Q: What about the “PSA (Prostate Specific Antigen) after treatment” value [13] of the same compound?
A: 14

Q: What about the “prior response of insomnia to low dose dipyridamole alone” value ([1]; six subjects, 1 or 2 mg daily) of the same compound?
A: somewhat responsive
